In patent publication US20100266694A1, “Chitosan/Carbon Nanotube Composite Scaffolds for Drug Delivery” (priority 2009, published 2010):

Experiments:
Pseudomonas aeruginosa = assay: Turbidity test of amikacin eluates for bactericidal activity; assay type: cell-based; conditions: amikacin eluates from constructs against Pseudomonas aeruginosa
Experimental: (§1) Eluates taken from constructs of these different types were tested for bactericidal activity in turbidity tests against appropriate strains of bacteria: amikacin eluates against Pseudomonas aeruginosa and vancomycin eluates against Staphylococcus aureus. Eluates were added to trypticase soy broth in a 1:10 dilution. Broth was then inoculated with bacteria and then incubated overnight at 37° C. Absorbance of these solutions (turbidity) was used as an indicator of bacterial growth. Percent inhibition of bacterial growth is calculated from these measurements.

Staphylococcus aureus = assay: Turbidity test of vancomycin eluates for bactericidal activity; assay type: cell-based; conditions: vancomycin eluates from constructs against Staphylococcus aureus
Experimental: as §1

Structure (SMILES) | time up to which elution is inhibitory (Pseudomonas aeruginosa) | time up to which elution is inhibitory (Staphylococcus aureus)
NCC[C@H](O)C(=O)N[C@@H]1C[C@H](N)[C@@H](O[C@H]2O[C@H](CN)[C@@H](O)[C@H](O)[C@H]2O)[C@H](O)[C@H]1O[C@H]1O[C@H](CO)[C@@H](O)[C@H](N)[C@H]1O [amikacin] | up to 24 hours | 
CN[C@H](CC(C)C)C(=O)N[C@H]1C(=O)N[C@@H](CC(N)=O)C(=O)N[C@H]2C(=O)N[C@H]3C(=O)N[C@H](C(=O)N[C@H](C(=O)O)c4cc(O)cc(O)c4-c4cc3ccc4O)[C@H](O)c3ccc(c(Cl)c3)Oc3cc2cc(c3O[C@@H]2O[C@H](CO)[C@@H](O)[C@H](O)[C@H]2O[C@H]2C[C@](C)(N)[C@H](O)[C@H](C)O2)Oc2ccc(cc2Cl)[C@H]1O [vancomycin] |  | up to 48 hours
